Assay results published in the supplement of paper PMC10307832.

Experiments:
Test in all cases: relative viability (nuclei count vs DMSO), 5 days (fraction); higher = more cells survive
[1] = compound: CC1=C(C=C(C=C1)NC(=O)C2=CC(=CC=C2)C(C)(C)C#N)NC3=CC4=C(C=C3)N=CN(C4=O)C [AZ628] + CC1(C)CCC(c2ccc(Cl)cc2)=C(CN2CCN(c3ccc(C(=O)NS(=O)(=O)c4ccc(N[C@H](CCN5CCOCC5)CSc5ccccc5)c(S(=O)(=O)C(F)(F)F)c4)cc3)CC2)C1 [Navitoclax] (partner 0.5 µM)
Summary of the method: (§1)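 A single step with final 0.05% Triton X-100, 1% formaldehyde and 1 ug/ml Hoechst fixed the cells and stained nuclei 5 days after treatment. Lung cancer cell lines in 1536-well plates had been treated by pin tool the day after seeding with one drug alone or a fixed anchor-drug dose plus five library-drug doses (not always all listed) in √10 steps, and nuclei were counted on 4× images. Relative viability is the ratio of nuclei in treated wells to nuclei in vehicle wells, taken as the median of duplicate plates.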

[2] = compound: CC1=C(C=C(C=C1)NC(=O)C2=CC(=CC=C2)C(C)(C)C#N)NC3=CC4=C(C=C3)N=CN(C4=O)C [AZ628] + COc1cc2c(Oc3ccc(NC(=O)C4(C(=O)Nc5ccc(F)cc5)CC4)cc3F)ccnc2cc1OCCCN1CCOCC1 [Foretinib] (partner 0.25 µM)
Summary of the method: as §1

[3] = compound: C[As](C)SC[C@H](NC(=O)CC[C@H](N)C(=O)O)C(=O)NCC(=O)O [Darinaparsin] + CC(=O)Nc1cccc(-n2c(=O)n(C3CC3)c(=O)c3c(Nc4ccc(I)cc4F)n(C)c(=O)c(C)c32)c1 [Trametinib] (partner 0.02 µM)
Summary of the method: as §1

[4] = compound: CC1=C(C=C(C=C1)NC(=O)C2=CC(=CC=C2)C(C)(C)C#N)NC3=CC4=C(C=C3)N=CN(C4=O)C [AZ628] + Cc1nc(NC(=O)N2CCC[C@H]2C(N)=O)sc1-c1ccnc(C(C)(C)C(F)(F)F)c1 [Alpelisib] (partner 2 µM)
Summary of the method: as §1

Cell Line	relative viability ([1]; first compound 0.08 µM)	relative viability ([1]; first compound 0.253 µM)	relative viability ([1]; first compound 0.8 µM)	relative viability ([1]; first compound 2.53 µM)	relative viability ([1]; first compound 8 µM)	relative viability ([2]; first compound 0.08 µM)	relative viability ([2]; first compound 0.253 µM)	relative viability ([2]; first compound 0.8 µM)	relative viability ([2]; first compound 2.53 µM)	relative viability ([2]; first compound 8 µM)	relative viability ([3]; first compound 0.08 µM)	relative viability ([3]; first compound 0.8 µM)	relative viability ([3]; first compound 2.53 µM)	relative viability ([3]; first compound 8 µM)	relative viability ([4]; first compound 0.08 µM)	relative viability ([4]; first compound 0.253 µM)	relative viability ([4]; first compound 0.8 µM)	relative viability ([4]; first compound 2.53 µM)	relative viability ([4]; first compound 8 µM)
NCI-H2170	0.654	0.636	0.707	0.748	0.721	0.992	1.07	1.03	1.07	0.913	1.17	0.955	0.926	1.18	0.931	0.751	0.809	0.852	0.98
NCI-H3122	0.929	0.762	0.73	0.555	0.42	0.787	0.625	0.499	0.613	0.233	0.231	0.208	0.216	0.347	0.631	0.337	0.342	0.268	0.233
COR-L 105	0.81	0.967	0.761	0.655	0.652	1.47	0.95	1.19	1.11	0.669	0.473	0.456	0.427	0.45	0.998	1.27	0.921	1.03	0.632
NCI-H2087	0.746	0.676	0.64	0.669	0.267	0.839	0.821	0.727	0.78	0.256	0.185	0.176	0.185	0.263	0.783	0.73	0.62	0.678	0.231
HCC-366	1.01	1.09	0.997	0.97	0.598	0.885	0.884	0.781	0.892	0.372	0.393		0.336	0.378	0.356	0.317	0.154	0.26	0.12
NCI-H2347	0.519	0.67	0.712	0.638	0.368	0.697	0.81	0.704	0.976	0.407	0.249	0.266	0.307	0.242	0.679	0.934	0.779	0.822	0.471
201T	1.22	1.21	1.25	1.27	1.23	1.29	1.01	1.18	1.16	1.31	0.777	0.728	0.711	0.751	1.08	1.03	1.13	1.09	1.12
NCI-H1993	1	0.872	0.859	0.688	0.709	1.05	0.68	0.714	0.715	0.667	0.661	0.5	0.512	0.589	0.73	0.61	0.662	0.631	0.739
